Laboratory results taken from US10206394B2, “Herbicidal compounds” (Syngenta Participations AG, priority 2014, dated 2019).
Read-outs that look alike come from different tables or passages of the source.

How the values were obtained:
Test in all cases: Glasshouse assay for herbicidal activity (pre- and post-emergence), percentage phytotoxicity
Assay type in all cases: in vivo
[1] = system: Alopecurus myosuroides (ALOMY); conditions: Alopecurus myosuroides
In short: (§1)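 Herbicide was applied to potted plants sown in standard soil, one day after sowing for PRE and after about 12 days for POST. Visual percentage damage ratings followed at 15 DAA (POST) and 20 DAA (PRE).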

[2] = system: Avena fatua (AVEFA); conditions: Avena fatua
In short: as §1

[3] = system: Echinochloa crus-galli (ECHCG); conditions: Echinochloa crus-galli
In short: as §1

[4] = system: Lolium perenne (LOLPE); conditions: Lolium perenne
In short: as §1

[5] = post-emergence, 360 h, post-emergence, 250 g/ha, 15 DAA, visual score (100%=total damage; 0%=no damage), read-out: ALOMY POST herbicidal activity (percentage phytotoxicity)
[6] = pre-emergence, 480 h, pre-emergence, 250 g/ha, 20 DAA, visual score (100%=total damage; 0%=no damage), read-out: ALOMY PRE herbicidal activity (percentage phytotoxicity)
[7] = post-emergence, 360 h, post-emergence, 250 g/ha, 15 DAA, visual score (100%=total damage; 0%=no damage), read-out: AVEFA POST herbicidal activity (percentage phytotoxicity)
[8] = pre-emergence, 480 h, pre-emergence, 250 g/ha, 20 DAA, visual score (100%=total damage; 0%=no damage), read-out: AVEFA PRE herbicidal activity (percentage phytotoxicity)
[9] = post-emergence, 360 h, post-emergence, 250 g/ha, 15 DAA, visual score (100%=total damage; 0%=no damage), read-out: ECHCG POST herbicidal activity (percentage phytotoxicity)
[10] = pre-emergence, 480 h, pre-emergence, 250 g/ha, 20 DAA, visual score (100%=total damage; 0%=no damage), read-out: ECHCG PRE herbicidal activity (percentage phytotoxicity)
[11] = post-emergence, 360 h, post-emergence, 250 g/ha, 15 DAA, visual score (100%=total damage; 0%=no damage), read-out: LOLPE POST herbicidal activity (percentage phytotoxicity)
[12] = pre-emergence, 480 h, pre-emergence, 250 g/ha, 20 DAA, visual score (100%=total damage; 0%=no damage), read-out: LOLPE PRE herbicidal activity (percentage phytotoxicity)

Structure (SMILES)	pest or weed control at 250 g/ha [1, 5] [%]	pest or weed control at 250 g/ha [1, 6] [%]	pest or weed control at 250 g/ha [2, 7] [%]	pest or weed control at 250 g/ha [2, 8] [%]	pest or weed control at 250 g/ha [3, 9] [%]	pest or weed control at 250 g/ha [3, 10] [%]	pest or weed control at 250 g/ha [4, 11] [%]	pest or weed control at 250 g/ha [4, 12] [%]	also measured
Cc1cc(C)c(C2C(=O)CC(CC(=O)NC3CC(F)(F)C3)C2=O)c(C)c1 (stereo not shown) [Compound A185]	80	80	80	60	70	70	70	70	–
Cc1cc(C)c(C2C(=O)CC(CC(=O)NCC3CCC3)C2=O)c(C)c1 (stereo not shown) [Compound A184]	90	90	70	0	90	90	80	90	–
Cc1cc(C)c(C2C(=O)CC(CC(=O)NC3CC(F)C3)C2=O)c(C)c1 (stereo not shown) [Compound A181]	90	90	90	90	80	90	100	100	–
CCc1cc(-n2cc(Cl)cn2)cc(C)c1C1C(=O)CC(CC(=O)NCc2ccc(OC)cc2)C1=O (stereo not shown) [Compound B233]	–	–	–	–	–	–	–	–	pest or weed control at 250 g/ha ([1]; post-emergence, 360 h, POST-emergence, rate 250 g/ha, visual score 15 DAA (100%=total damage, 0%=no damage), read-out: Post-emergence herbicidal activity (percentage phytotoxicity) ALOMY POST): 60%; pest or weed control at 250 g/ha ([1]; pre-emergence, 480 h, PRE-emergence, rate 250 g/ha, visual score 20 DAA (100%=total damage, 0%=no damage), read-out: Pre-emergence herbicidal activity (percentage phytotoxicity) ALOMY PRE): 70%; pest or weed control at 250 g/ha ([2]; post-emergence, 360 h, POST-emergence, rate 250 g/ha, visual score 15 DAA (100%=total damage, 0%=no damage), read-out: Post-emergence herbicidal activity (percentage phytotoxicity) AVEFA POST): 70%; pest or weed control at 250 g/ha ([2]; pre-emergence, 480 h, PRE-emergence, rate 250 g/ha, visual score 20 DAA (100%=total damage, 0%=no damage), read-out: Pre-emergence herbicidal activity (percentage phytotoxicity) AVEFA PRE): 60%; pest or weed control at 250 g/ha ([3]; post-emergence, 360 h, POST-emergence, rate 250 g/ha, visual score 15 DAA (100%=total damage, 0%=no damage), read-out: Post-emergence herbicidal activity (percentage phytotoxicity) ECHCG POST): 100%; pest or weed control at 250 g/ha ([3]; pre-emergence, 480 h, PRE-emergence, rate 250 g/ha, visual score 20 DAA (100%=total damage, 0%=no damage), read-out: Pre-emergence herbicidal activity (percentage phytotoxicity) ECHCG PRE): 70%; pest or weed control at 250 g/ha ([4]; post-emergence, 360 h, POST-emergence, rate 250 g/ha, visual score 15 DAA (100%=total damage, 0%=no damage), read-out: Post-emergence herbicidal activity (percentage phytotoxicity) LOLPE POST): 70%; pest or weed control at 250 g/ha ([4]; pre-emergence, 480 h, PRE-emergence, rate 250 g/ha, visual score 20 DAA (100%=total damage, 0%=no damage), read-out: Pre-emergence herbicidal activity (percentage phytotoxicity) LOLPE PRE): 70%
CC#Cc1cc(C)c(C2C(=O)CC(CC(=O)NC(C)(C)CC)C2=O)c(C)c1 (stereo not shown) [Compound A60]	–	–	–	–	–	–	–	–	pest or weed control at 250 g/ha ([1]; post-emergence, 360 h, Rate 250 g/ha, post-emergence, assessed visually 15 DAA, 100%=total damage, 0%=no damage, read-out: Post-emergence herbicidal activity (percentage phytotoxicity) ALOMY POST): 100%; pest or weed control at 250 g/ha ([1]; pre-emergence, 480 h, Rate 250 g/ha, pre-emergence, assessed visually 20 DAA, 100%=total damage, 0%=no damage, read-out: Pre-emergence herbicidal activity (percentage phytotoxicity) ALOMY PRE): 100%; pest or weed control at 250 g/ha ([2]; post-emergence, 360 h, Rate 250 g/ha, post-emergence, assessed visually 15 DAA, 100%=total damage, 0%=no damage, read-out: Post-emergence herbicidal activity (percentage phytotoxicity) AVEFA POST): 100%; pest or weed control at 250 g/ha ([2]; pre-emergence, 480 h, Rate 250 g/ha, pre-emergence, assessed visually 20 DAA, 100%=total damage, 0%=no damage, read-out: Pre-emergence herbicidal activity (percentage phytotoxicity) AVEFA PRE): 100%; pest or weed control at 250 g/ha ([3]; post-emergence, 360 h, Rate 250 g/ha, post-emergence, assessed visually 15 DAA, 100%=total damage, 0%=no damage, read-out: Post-emergence herbicidal activity (percentage phytotoxicity) ECHCG POST): 100%; pest or weed control at 250 g/ha ([3]; pre-emergence, 480 h, Rate 250 g/ha, pre-emergence, assessed visually 20 DAA, 100%=total damage, 0%=no damage, read-out: Pre-emergence herbicidal activity (percentage phytotoxicity) ECHCG PRE): 100%; pest or weed control at 250 g/ha ([4]; post-emergence, 360 h, Rate 250 g/ha, post-emergence, assessed visually 15 DAA, 100%=total damage, 0%=no damage, read-out: Post-emergence herbicidal activity (percentage phytotoxicity) LOLPE POST): 90%; pest or weed control at 250 g/ha ([4]; pre-emergence, 480 h, Rate 250 g/ha, pre-emergence, assessed visually 20 DAA, 100%=total damage, 0%=no damage, read-out: Pre-emergence herbicidal activity (percentage phytotoxicity) LOLPE PRE): 100%
